The source of these data is patent US7985766B2, “Combination of anticholineric and β mimetics for the treatment of respiratory diseases” (MEDA Pharma GmbH & Co. KG, priority 2004, dated 2011).

Read-outs that look alike come from different tables or passages of the source.

The subject of this assay is guinea pigs. As to conditions: for inhibition of acetylcholine-induced bronchoconstriction (bronchodilatory effect): 1 μg/kg, single drug; for inhibition of acetylcholine-induced bronchoconstriction (bronchodilatory effect) / inhibition of the bronchospasm: i.th.; for inhibition of acetylcholine-induced bronchoconstriction, dose dependence: i.th. 1-10 μg/kg, acetylcholine 10 μg/kg i.v., anesthetized male guinea pigs. The method, then: After cannulating the trachea, animals were respired using a small animal respiratory pump with a constant tidal volume and a rate of 60 breaths/min. The lung resistance was measured by using a rodent lung function recording system (MUMED, London, UK). Compounds were given intravenously (i.v.) via a catheter placed in the right jugular vein. After surgery, the animals were allowed to stabilize. 10 min before acetylcholine (10 μg/kg, i.v.) administration, the guinea pigs were disconnected from the respirator and either vehicle (10 mg/lactose) or different amounts of drugs (blended with lactose) were administered intratracheally (i.th.) using a syringe. The trachea was then reconnected to the respirator and changes in pulmonary mechanics were recorded. Acetylcholine (10 μg/kg) was injected intravenously in every 10 minutes for 60 min.

As to `COc1ccc(CC(C)NCC(O)c2ccc(O)c(NC=O)c2)cc1` (stereo not drawn) [formoterol], the “inhibition of acetylcholine-induced bronchoconstriction (bronchodilatory effect)” value is “did not show any bronchodilatory effects” and the “inhibition of acetylcholine-induced bronchoconstriction, dose dependence” value is on record as “dose-dependently inhibited”.

Regarding `C[N+]1(C)CC[C@@H](OC(=O)[C@](O)(c2ccccc2)C2CCCC2)C1.[Br-]` [R,R-glycopyrrolate], the “inhibition of acetylcholine-induced bronchoconstriction (bronchodilatory effect)” value is given as “not effective” and the “inhibition of acetylcholine-induced bronchoconstriction, dose dependence” value is given as “dose-dependently inhibited”. Moreover, the “inhibition of the bronchospasm” value (3 μg/kg) was “ca. 40%”. In addition, the “inhibition of the bronchospasm” value (10 μg/kg) was “about 80%”.
